{
  "source": "paper PMC7180948",
  "about": "“New Insights into 4-Anilinoquinazolines as Inhibitors of Cardiac Troponin I–Interacting Kinase (TNNi3K)” (Molecules, 2020)",
  "assay_in_all_cases": "biochemical",
  "set-up_in_all_cases": "KINOMEscan competition binding panel (Eurofins DiscoverX), single concentration, % inhibition",
  "key": {"PIK3CA(I800L)": {"biological_target": "PIK3CA(I800L) (Homo sapiens, UniProt P42336, I800L)", "conditions": "read-out: 7 at 1 µM % inhibition", "in_short": "(§1)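 Values come from single-concentration (1 µM) profiling in the Eurofins DiscoverX KINOMEscan competition-binding platform, which covers over 400 kinases.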"}, "RIOK1": {"biological_target": "RIOK1 (Homo sapiens, UniProt Q9BRS2)", "sequence (Q9BRS2 whole entry)": "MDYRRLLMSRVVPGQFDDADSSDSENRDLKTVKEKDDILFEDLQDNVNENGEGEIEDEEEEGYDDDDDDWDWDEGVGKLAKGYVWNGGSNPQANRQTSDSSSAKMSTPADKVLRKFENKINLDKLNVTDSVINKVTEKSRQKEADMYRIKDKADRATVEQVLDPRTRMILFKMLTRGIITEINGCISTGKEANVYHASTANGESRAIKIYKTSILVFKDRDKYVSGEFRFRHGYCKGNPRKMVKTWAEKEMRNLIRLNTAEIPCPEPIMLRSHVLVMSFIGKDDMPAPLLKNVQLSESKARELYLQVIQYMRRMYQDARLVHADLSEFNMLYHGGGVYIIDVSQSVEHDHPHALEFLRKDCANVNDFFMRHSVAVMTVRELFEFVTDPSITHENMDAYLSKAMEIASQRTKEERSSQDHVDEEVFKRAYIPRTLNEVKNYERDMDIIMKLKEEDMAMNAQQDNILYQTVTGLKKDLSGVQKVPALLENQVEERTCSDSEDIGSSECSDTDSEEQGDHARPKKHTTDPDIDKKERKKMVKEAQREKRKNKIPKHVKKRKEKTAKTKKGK", "conditions": "read-out: 7 at 1 µM % inhibition", "in_short": "as §1"}, "AURKC": {"biological_target": "AURKC (Homo sapiens, UniProt Q9UQB9)", "conditions": "read-out: 7 at 1 µM % inhibition", "in_short": "as §1"}, "CSF1R-autoinhibited": {"biological_target": "CSF1R-autoinhibited (Homo sapiens, UniProt P07333)", "conditions": "read-out: 7 at 1 µM % inhibition", "in_short": "as §1"}, "HIPK1": {"biological_target": "HIPK1 (Homo sapiens, UniProt Q86Z02)", "sequence (Q86Z02 whole entry)": "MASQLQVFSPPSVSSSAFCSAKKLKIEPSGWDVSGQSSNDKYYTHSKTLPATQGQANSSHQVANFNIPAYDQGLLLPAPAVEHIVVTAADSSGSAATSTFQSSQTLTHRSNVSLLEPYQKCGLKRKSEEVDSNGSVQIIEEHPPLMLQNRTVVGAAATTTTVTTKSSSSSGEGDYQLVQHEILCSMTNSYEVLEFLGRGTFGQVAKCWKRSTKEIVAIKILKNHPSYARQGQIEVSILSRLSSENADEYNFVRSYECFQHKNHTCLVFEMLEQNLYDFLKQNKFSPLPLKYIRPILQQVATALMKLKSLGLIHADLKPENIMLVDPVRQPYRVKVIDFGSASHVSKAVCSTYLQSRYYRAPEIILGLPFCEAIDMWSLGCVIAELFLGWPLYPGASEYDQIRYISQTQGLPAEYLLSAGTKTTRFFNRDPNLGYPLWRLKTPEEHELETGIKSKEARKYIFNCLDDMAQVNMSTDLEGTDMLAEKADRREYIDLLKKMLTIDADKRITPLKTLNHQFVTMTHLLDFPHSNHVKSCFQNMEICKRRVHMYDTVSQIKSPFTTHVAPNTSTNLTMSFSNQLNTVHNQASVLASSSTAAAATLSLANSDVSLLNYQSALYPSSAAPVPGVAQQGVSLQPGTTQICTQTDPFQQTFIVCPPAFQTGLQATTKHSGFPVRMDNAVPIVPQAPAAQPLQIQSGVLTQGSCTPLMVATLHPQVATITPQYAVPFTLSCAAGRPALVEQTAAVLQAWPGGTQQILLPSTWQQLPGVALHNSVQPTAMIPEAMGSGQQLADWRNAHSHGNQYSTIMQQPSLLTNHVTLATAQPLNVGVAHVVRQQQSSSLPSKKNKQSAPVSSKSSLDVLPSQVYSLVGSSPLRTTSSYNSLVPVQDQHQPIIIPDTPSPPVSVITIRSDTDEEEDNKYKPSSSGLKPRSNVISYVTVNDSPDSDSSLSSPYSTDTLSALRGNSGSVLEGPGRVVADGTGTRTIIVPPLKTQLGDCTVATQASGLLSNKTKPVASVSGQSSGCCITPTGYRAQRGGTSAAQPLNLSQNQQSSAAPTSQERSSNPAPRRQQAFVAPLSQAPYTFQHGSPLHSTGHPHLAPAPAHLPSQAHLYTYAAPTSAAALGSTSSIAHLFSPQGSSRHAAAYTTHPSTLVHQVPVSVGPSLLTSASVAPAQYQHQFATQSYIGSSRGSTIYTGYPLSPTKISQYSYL", "conditions": "read-out: 7 at 1 µM % inhibition", "in_short": "as §1"}, "FGFR3": {"biological_target": "FGFR3 (Homo sapiens, UniProt P22607)", "conditions": "read-out: 7 at 1 µM % inhibition", "in_short": "as §1"}, "KIT(A829P)": {"biological_target": "KIT(A829P) (Homo sapiens, UniProt P10721, A829P)", "conditions": "read-out: 7 at 1 µM % inhibition", "in_short": "as §1"}, "BIKE": {"biological_target": "T1, BIKE (Homo sapiens, UniProt Q9NSY1)", "T1 construct": "gene BMP2K", "conditions": "read-out: 7 at 1 µM % inhibition", "in_short": "as §1"}, "FLT3": {"biological_target": "FLT3 (Homo sapiens, UniProt P36888)", "conditions": "read-out: 7 at 1 µM % inhibition", "in_short": "as §1"}, "SgK110": {"biological_target": "T2, SgK110 (Homo sapiens, UniProt P0C264)", "T2 construct": "gene SBK3", "conditions": "read-out: 7 at 1 µM % inhibition", "in_short": "as §1"}, "DDR1": {"biological_target": "DDR1 (Homo sapiens, UniProt Q08345)", "sequence (Q08345 whole entry)": "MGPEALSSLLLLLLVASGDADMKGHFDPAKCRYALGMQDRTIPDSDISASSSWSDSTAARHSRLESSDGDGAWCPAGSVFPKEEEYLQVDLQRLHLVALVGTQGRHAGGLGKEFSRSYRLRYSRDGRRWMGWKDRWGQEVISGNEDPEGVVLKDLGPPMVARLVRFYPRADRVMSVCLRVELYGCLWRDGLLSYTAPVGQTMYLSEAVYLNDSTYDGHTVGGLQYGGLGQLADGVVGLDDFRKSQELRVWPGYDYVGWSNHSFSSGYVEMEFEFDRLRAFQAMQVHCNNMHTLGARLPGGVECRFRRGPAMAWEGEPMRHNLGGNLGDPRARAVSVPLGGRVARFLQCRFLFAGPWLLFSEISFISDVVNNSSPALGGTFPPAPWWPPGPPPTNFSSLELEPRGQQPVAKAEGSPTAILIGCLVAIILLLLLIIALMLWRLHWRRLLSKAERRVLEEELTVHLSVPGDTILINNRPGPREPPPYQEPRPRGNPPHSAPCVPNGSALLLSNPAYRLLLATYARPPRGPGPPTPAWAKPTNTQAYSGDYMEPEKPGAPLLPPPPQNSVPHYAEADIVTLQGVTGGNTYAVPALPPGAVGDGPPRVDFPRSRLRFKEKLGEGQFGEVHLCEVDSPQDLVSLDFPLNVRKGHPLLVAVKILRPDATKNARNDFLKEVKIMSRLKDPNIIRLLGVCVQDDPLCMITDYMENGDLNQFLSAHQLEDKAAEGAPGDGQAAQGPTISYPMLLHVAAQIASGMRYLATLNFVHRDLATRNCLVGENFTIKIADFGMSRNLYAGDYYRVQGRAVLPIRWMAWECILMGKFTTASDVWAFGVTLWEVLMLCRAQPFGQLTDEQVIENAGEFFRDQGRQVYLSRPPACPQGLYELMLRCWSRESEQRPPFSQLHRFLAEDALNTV", "conditions": "read-out: 7 at 1 µM % inhibition", "in_short": "as §1"}, "GRK4": {"biological_target": "GRK4 (Homo sapiens, UniProt P32298)", "conditions": "read-out: 7 at 1 µM % inhibition", "in_short": "as §1"}, "MAPKAPK5": {"biological_target": "MAPKAPK5 (Homo sapiens, UniProt Q8IW41)", "conditions": "read-out: 7 at 1 µM % inhibition", "in_short": "as §1"}, "RIOK3": {"biological_target": "RIOK3 (Homo sapiens, UniProt O14730)", "conditions": "read-out: 7 at 1 µM % inhibition", "in_short": "as §1"}, "PKNB(M.tuberculosis)": {"biological_target": "PKNB(M.tuberculosis) (Mycobacterium tuberculosis, UniProt P9WI81)", "sequence (P9WI81 whole entry)": "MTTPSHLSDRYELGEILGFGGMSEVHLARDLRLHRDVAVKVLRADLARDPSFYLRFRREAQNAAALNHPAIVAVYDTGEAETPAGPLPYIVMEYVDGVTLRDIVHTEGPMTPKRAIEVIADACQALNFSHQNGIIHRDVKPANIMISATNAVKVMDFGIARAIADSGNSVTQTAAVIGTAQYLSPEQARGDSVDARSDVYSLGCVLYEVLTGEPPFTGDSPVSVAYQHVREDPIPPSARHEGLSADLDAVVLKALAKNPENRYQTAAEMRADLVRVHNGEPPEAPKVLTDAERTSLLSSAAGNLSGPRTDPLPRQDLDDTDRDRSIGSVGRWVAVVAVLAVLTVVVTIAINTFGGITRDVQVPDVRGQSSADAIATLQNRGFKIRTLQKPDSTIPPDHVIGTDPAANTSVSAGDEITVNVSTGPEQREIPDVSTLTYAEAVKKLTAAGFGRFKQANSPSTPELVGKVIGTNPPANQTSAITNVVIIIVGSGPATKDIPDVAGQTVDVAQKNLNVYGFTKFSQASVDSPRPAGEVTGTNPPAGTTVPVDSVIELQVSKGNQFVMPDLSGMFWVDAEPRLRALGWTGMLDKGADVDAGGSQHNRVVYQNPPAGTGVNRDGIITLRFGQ", "conditions": "read-out: 7 at 1 µM % inhibition (pathogen kinases)", "in_short": "as §1"}, "p38-delta": {"biological_target": "T3, p38-delta (Homo sapiens, UniProt O15264)", "T3 construct": "gene MAPK13", "conditions": "read-out: 7 at 1 µM % inhibition", "in_short": "as §1"}, "KIT(D816V)": {"biological_target": "KIT(D816V) (Homo sapiens, UniProt P10721, D816V)", "conditions": "read-out: 7 at 1 µM % inhibition", "in_short": "as §1"}, "FLT3(D835Y)": {"biological_target": "FLT3(D835Y) (Homo sapiens, UniProt P36888, D835Y)", "conditions": "read-out: 7 at 1 µM % inhibition", "in_short": "as §1"}, "CAMK1G": {"biological_target": "CAMK1G (Homo sapiens, UniProt Q96NX5)", "sequence (Q96NX5 whole entry)": "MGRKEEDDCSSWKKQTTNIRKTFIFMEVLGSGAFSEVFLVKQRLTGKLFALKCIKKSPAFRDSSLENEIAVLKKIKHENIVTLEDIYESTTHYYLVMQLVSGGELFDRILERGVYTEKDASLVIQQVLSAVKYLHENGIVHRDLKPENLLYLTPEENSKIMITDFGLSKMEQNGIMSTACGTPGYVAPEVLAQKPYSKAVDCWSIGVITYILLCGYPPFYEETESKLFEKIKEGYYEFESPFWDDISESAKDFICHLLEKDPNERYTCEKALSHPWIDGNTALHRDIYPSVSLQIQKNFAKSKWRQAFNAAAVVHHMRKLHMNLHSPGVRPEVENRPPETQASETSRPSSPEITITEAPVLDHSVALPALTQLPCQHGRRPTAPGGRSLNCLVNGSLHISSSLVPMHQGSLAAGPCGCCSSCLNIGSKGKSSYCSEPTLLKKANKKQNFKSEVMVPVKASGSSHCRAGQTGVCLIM", "conditions": "read-out: 7 at 1 µM % inhibition", "in_short": "as §1"}, "DCAMKL1": {"biological_target": "T4, DCAMKL1 (Homo sapiens, UniProt O15075)", "T4 construct": "gene DCLK1", "conditions": "read-out: 7 at 1 µM % inhibition", "in_short": "as §1"}, "MARK3": {"biological_target": "MARK3 (Homo sapiens, UniProt P27448)", "conditions": "read-out: 7 at 1 µM % inhibition", "in_short": "as §1"}, "LKB1": {"biological_target": "T5, LKB1 (Homo sapiens, UniProt Q15831)", "T5 construct": "gene STK11", "T5 sequence (Q15831 whole entry)": "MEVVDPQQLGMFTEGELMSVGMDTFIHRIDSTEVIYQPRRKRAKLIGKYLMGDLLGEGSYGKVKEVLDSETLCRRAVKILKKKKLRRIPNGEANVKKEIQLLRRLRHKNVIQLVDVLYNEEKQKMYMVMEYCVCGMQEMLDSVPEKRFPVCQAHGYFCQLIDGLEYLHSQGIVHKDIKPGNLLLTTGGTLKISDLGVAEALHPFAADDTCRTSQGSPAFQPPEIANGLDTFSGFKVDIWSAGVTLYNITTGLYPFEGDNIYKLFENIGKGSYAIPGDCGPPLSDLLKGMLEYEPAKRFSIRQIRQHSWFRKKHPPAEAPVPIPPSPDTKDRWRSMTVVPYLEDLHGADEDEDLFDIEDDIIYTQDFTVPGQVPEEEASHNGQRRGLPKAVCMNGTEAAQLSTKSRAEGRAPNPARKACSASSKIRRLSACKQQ", "conditions": "read-out: 7 at 1 µM % inhibition", "in_short": "as §1"}, "BRSK1": {"biological_target": "BRSK1 (Homo sapiens, UniProt Q8TDC3)", "sequence (Q8TDC3 whole entry)": "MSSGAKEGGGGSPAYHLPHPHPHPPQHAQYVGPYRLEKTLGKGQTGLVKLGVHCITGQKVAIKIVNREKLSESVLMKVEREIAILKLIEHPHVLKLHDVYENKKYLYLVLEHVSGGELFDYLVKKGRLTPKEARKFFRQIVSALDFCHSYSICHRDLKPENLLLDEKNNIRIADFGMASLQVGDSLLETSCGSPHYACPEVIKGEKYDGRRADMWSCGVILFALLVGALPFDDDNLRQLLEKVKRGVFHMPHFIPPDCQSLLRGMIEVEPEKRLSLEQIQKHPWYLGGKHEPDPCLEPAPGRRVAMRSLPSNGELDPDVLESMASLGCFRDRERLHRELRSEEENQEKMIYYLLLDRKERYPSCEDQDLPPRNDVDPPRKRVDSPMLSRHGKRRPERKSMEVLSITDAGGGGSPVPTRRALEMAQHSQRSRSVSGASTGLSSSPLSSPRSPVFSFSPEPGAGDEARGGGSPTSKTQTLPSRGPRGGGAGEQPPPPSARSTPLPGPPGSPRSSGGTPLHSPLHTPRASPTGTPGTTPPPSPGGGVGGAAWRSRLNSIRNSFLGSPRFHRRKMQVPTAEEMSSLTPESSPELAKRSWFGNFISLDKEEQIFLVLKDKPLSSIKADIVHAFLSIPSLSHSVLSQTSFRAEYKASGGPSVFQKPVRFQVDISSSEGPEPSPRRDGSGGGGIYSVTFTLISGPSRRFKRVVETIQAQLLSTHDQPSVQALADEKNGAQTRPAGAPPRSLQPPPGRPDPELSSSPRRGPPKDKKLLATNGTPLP", "conditions": "read-out: 7 at 1 µM % inhibition", "in_short": "as §1"}, "CDKL1": {"biological_target": "CDKL1 (Homo sapiens, UniProt Q00532)", "conditions": "read-out: 7 at 1 µM % inhibition", "in_short": "as §1"}},
  "data": [
    {"smiles": "CNS(=O)(=O)c1ccc(N(C)C)c(Nc2ncnc3cc(OC)c(OC)cc23)c1", "note": "[compound 7, 3-((6,7-dimethoxyquinazolin-4-yl)amino)-4-(dimethylamino)-N-methylbenzenesulfonamide]", "values": [
      {"measurement": "inhibition at 1 µM", "setting": "PIK3CA(I800L)", "result": 56, "unit": "%"},
      {"measurement": "inhibition at 1 µM", "setting": "RIOK1", "result": 0, "unit": "%"},
      {"measurement": "inhibition at 1 µM", "setting": "AURKC", "result": 0, "unit": "%"},
      {"measurement": "inhibition at 1 µM", "setting": "CSF1R-autoinhibited", "result": 39, "unit": "%"},
      {"measurement": "inhibition at 1 µM", "setting": "HIPK1", "result": 5, "unit": "%"},
      {"measurement": "inhibition at 1 µM", "setting": "FGFR3", "result": 0, "unit": "%"},
      {"measurement": "inhibition at 1 µM", "setting": "KIT(A829P)", "result": 61, "unit": "%"},
      {"measurement": "inhibition at 1 µM", "setting": "BIKE", "result": 0, "unit": "%"},
      {"measurement": "inhibition at 1 µM", "setting": "FLT3", "result": 7, "unit": "%"},
      {"measurement": "inhibition at 1 µM", "setting": "SgK110", "result": 0, "unit": "%"},
      {"measurement": "inhibition at 1 µM", "setting": "DDR1", "result": 0, "unit": "%"},
      {"measurement": "inhibition at 1 µM", "setting": "GRK4", "result": 0, "unit": "%"},
      {"measurement": "inhibition at 1 µM", "setting": "MAPKAPK5", "result": 27, "unit": "%"},
      {"measurement": "inhibition at 1 µM", "setting": "RIOK3", "result": 0, "unit": "%"},
      {"measurement": "inhibition at 1 µM", "setting": "PKNB(M.tuberculosis)", "result": 23, "unit": "%"},
      {"measurement": "inhibition at 1 µM", "setting": "p38-delta", "result": 0, "unit": "%"},
      {"measurement": "inhibition at 1 µM", "setting": "KIT(D816V)", "result": 91.7, "unit": "%"},
      {"measurement": "inhibition at 1 µM", "setting": "FLT3(D835Y)", "result": 13, "unit": "%"},
      {"measurement": "inhibition at 1 µM", "setting": "CAMK1G", "result": 0, "unit": "%"},
      {"measurement": "inhibition at 1 µM", "setting": "DCAMKL1", "result": 12, "unit": "%"},
      {"measurement": "inhibition at 1 µM", "setting": "MARK3", "result": 0, "unit": "%"},
      {"measurement": "inhibition at 1 µM", "setting": "LKB1", "result": 0, "unit": "%"},
      {"measurement": "inhibition at 1 µM", "setting": "BRSK1", "result": 0, "unit": "%"},
      {"measurement": "inhibition at 1 µM", "setting": "CDKL1", "result": 0, "unit": "%"}
    ]}
  ]
}
